# Key:
# [1] = test system: Human immunodeficiency virus type 1 reverse transcriptase (Human immunodeficiency virus 1), Q72547 [K103N]
# [2] = test system: Human immunodeficiency virus 1; test: Antiviral activity was evaluated against wild-type HIV-1 virus; type: functional
SMILES,IC90 [1] [nM],IC90 [2] [nM]
CC(C)=CCOC1(C(F)(F)F)OC(=O)Nc2ccc(Cl)cc21 (stereo not drawn),83,2.68
O=C1Nc2ccc(F)c(F)c2C(C#Cc2ccccn2)(C(F)(F)F)O1 (stereo not drawn),–,6.78
O=C1Nc2ccc(F)c(F)c2C(C#Cc2ccoc2)(C(F)(F)F)O1 (stereo not drawn),280,3.21
CC(C)=CCOC1(C(F)(F)F)OC(=O)Nc2ccc(F)c(F)c21 (stereo not drawn),65,1.54
CC#CCOC1(C(F)(F)F)OC(=O)Nc2ccc(Cl)cc21 (stereo not drawn),310,3.13
O=C1Nc2ccc(Cl)cc2C(C#Cc2ccco2)(C(F)(F)F)O1 (stereo not drawn),152,3.8
O=C1Nc2ccc(F)c(F)c2C(C#Cc2ccsc2)(C(F)(F)F)O1 (stereo not drawn),139,2.34
N#CCCOC1(C(F)(F)F)OC(=O)Nc2ccc(Cl)cc21 (stereo not drawn),–,> 1500
O=C1Nc2ccc(F)cc2C(C#Cc2ccco2)(C(F)(F)F)O1 (stereo not drawn),–,2.58
O=C1Nc2ccc(Cl)cc2C(OCc2ccccc2)(C(F)(F)F)O1 (stereo not drawn),–,17.9
CC(C)=CCOC1(C(F)(F)F)OC(=O)Nc2ccc(F)cc21 (stereo not drawn),107,2.98
O=C1Nc2ccc(Cl)cc2C(C#Cc2ccccn2)(C(F)(F)F)O1 (stereo not drawn),1110,5.39
O=C1Nc2ccc(Cl)cc2C(C#Cc2cccnc2)(C(F)(F)F)O1 (stereo not drawn),145,3.97
O=C1Nc2ccc(Cl)cc2C(OCC=C(Cl)Cl)(C(F)(F)F)O1 (stereo not drawn),242,9.5
O=C1Nc2ccc(Cl)cc2C(C#Cc2cncs2)(C(F)(F)F)O1 (stereo not drawn),–,6.69
O=C1Nc2ccc(F)cc2C(C#Cc2cccs2)(C(F)(F)F)O1 (stereo not drawn),–,2.93
C=CCOC1(C(F)(F)F)OC(=O)Nc2ccc(F)c(F)c21 (stereo not drawn),1620,6.47
C/C=C\COC1(C(F)(F)F)OC(=O)Nc2ccc(Cl)cc21 (stereo not drawn),237,4.35
O=C1Nc2ccc(F)cc2C(C#Cc2ccccn2)(C(F)(F)F)O1 (stereo not drawn),–,12.2
O=C1Nc2ccc(Cl)cc2C(OCC2CC2)(C(F)(F)F)O1 (stereo not drawn),–,7.7
O=C1Nc2ccc(Cl)cc2C(C#Cc2ccncc2)(C(F)(F)F)O1 (stereo not drawn),–,102
CC(C)CCOC1(C(F)(F)F)OC(=O)Nc2ccc(Cl)cc21 (stereo not drawn),286,10.1

SMILES,IC90 [1] [nM],IC90 [2] [nM]
O=C1Nc2ccc(F)cc2C(C#Cc2cccnc2)(C(F)(F)F)O1 (stereo not drawn),329,2.56
O=C1Nc2ccc(F)c(F)c2C(C#Cc2cccs2)(C(F)(F)F)O1 (stereo not drawn),156,2.23
O=C1Nc2ccc(Cl)cc2C(C#Cc2ccoc2)(C(F)(F)F)O1 (stereo not drawn),322,3.8
C/C=C/COC1(C(F)(F)F)OC(=O)Nc2ccc(Cl)cc21 (stereo not drawn),404,5.6
CCCCOC1(C(F)(F)F)OC(=O)Nc2ccc(Cl)cc21 (stereo not drawn),989,10.2
O=C1Nc2ccc(F)cc2C(OCC=C(Cl)Cl)(C(F)(F)F)O1 (stereo not drawn),–,11.9
C=CCCOC1(C(F)(F)F)OC(=O)Nc2ccc(Cl)cc21 (stereo not drawn),–,13.7
O=C1Nc2ccc(Cl)cc2C(OCc2cccnc2)(C(F)(F)F)O1 (stereo not drawn),–,75.3
O=C1Nc2ccc(Cl)cc2C(OCC(F)(F)C(F)(F)F)(C(F)(F)F)O1 (stereo not drawn),–,651
O=C1Nc2ccc(Cl)cc2C(C#Cc2ccsc2)(C(F)(F)F)O1 (stereo not drawn),106,4.47
O=C1Nc2ccc(Cl)cc2C(OCCc2ccccc2)(C(F)(F)F)O1 (stereo not drawn),–,167
O=C1Nc2ccc(F)c(F)c2C(OCC=C(Cl)Cl)(C(F)(F)F)O1 (stereo not drawn),183,6.35
C=CCOC1(C(F)(F)F)OC(=O)Nc2ccc(Cl)cc21 (stereo not drawn),–,3.9
O=C1Nc2ccc(F)cc2C(C#Cc2ccoc2)(C(F)(F)F)O1 (stereo not drawn),369,2.52
CCOC1(C(F)(F)F)OC(=O)Nc2ccc(Cl)cc21 (stereo not drawn),–,18.3
COCCOC1(C(F)(F)F)OC(=O)Nc2ccc(Cl)cc21 (stereo not drawn),–,61.4
O=C1Nc2ccc(F)c(F)c2C(C#Cc2cccnc2)(C(F)(F)F)O1 (stereo not drawn),59.3,2.23
CCCOC1(C(F)(F)F)OC(=O)Nc2ccc(Cl)cc21 (stereo not drawn),–,5.81
O=C1Nc2ccc(F)c(F)c2C(C#Cc2ccco2)(C(F)(F)F)O1 (stereo not drawn),–,3.79
O=C1Nc2ccc(Cl)cc2C(OCCC2CC2)(C(F)(F)F)O1 (stereo not drawn),–,8.04
O=C1Nc2ccc(F)cc2C(C#Cc2ccsc2)(C(F)(F)F)O1 (stereo not drawn),193,2.55
C/C=C/COC1(C(F)(F)F)OC(=O)Nc2ccc(F)cc21 (stereo not drawn),1150,8.85

# Source: ChEMBL document CHEMBL1134255, “Synthesis and evaluation of efavirenz (Sustiva) analogues as HIV-1 reverse transcriptase inhibitors: replacement of the cyclopropylacetylene side chain” (2001)
